Patent US20060110385A1, “Means and methods for diagnosing and treating affective disorders” (Affectis Pharmaceuticals AG, priority 2003, published 2006)

Assays:
DBA/201a mouse strain = assay: Porsolt's forced swim test after intrahippocampal BzATP; type: in vivo; conditions: 50 μM BzATP, 24 hours after injection
From the text: In the present example, the P2X7R agonist was directly injected into the hippocampus of mice. However, a P2X7R agonist agent or compound could also be delivered orally, subcutaneously, intravenously, intra-arterial, intranodal, intramedullary, intrathecal, intraventricular, intranasally, intrabronchial, transdermally, intrarectally, intraperitoneally, intramuscularly, intrapulmonary, vaginally, rectally, or intraocularly.
Four months old male mice were bilaterally implanted with guide cannulae (23 gauge, length 8 mm) by means of a stereotactic instrument (David Kopf Instruments). The coordinates, in relation to bregma, were −2.0 mm posterior, ±1.0 mm lateral, and −1.0 mm ventral. After surgery, the mice were allowed to recover for 10 to 12 days. […] Injections were performed using a 9 mm-30 gauge needle inserted into the guide cannulae and connected via tubing to a 10 μl Hamilton syringe.
The forced swim test is a standard test that measures primary stress-induced reductions in avoidance or escape, termed behavioural despair. The test is used to determine the effectiveness of antidepressants, test new pharmaceutical compounds and validate animal models of depression (Porsolt et al., Arch. Int. Pharmacodym. 229 (1977), 327-336; Porsolt, Rev. Neurosci. 11 (2000), 53-58; Rénéric et al., Behav. Brain Res. 136 (2002), 521-532; Page et al., Psychopharmacology 165 (2003), 194-201; Kelliher et al., Psychoneuroendocrinology 28 (2003), 332-347). The test consists of placing a mouse for a period of 5 minutes into a glass cylinder containing water. Under such circumstances, the mouse cannot touch the bottom of the cylinder and is thus forced to swim. Time, latency and frequency of struggling versus floating are scored as behavioural parameters. […] Increased struggling (i.e. active attempts to escape) indicates active coping behaviour that can be interpreted as an improvement of depression-like symptoms. For example, treatment with serotonergic antidepressants reduce the total time spent floating (Borsini, Neurosci. Biobehav. Rev. 19 (1995), 377-395; Redrobe and Bourin, Psychopharmacology 138 (1998), 198-206, and in parallel increases the time of active behaviour (i.e. swimming or struggling; Lucki et al., Psychopharmacology 155 (2001), 315-322).

P2X7R [1] = biological target: T1, P2X7R (Mus musculus, UniProt Q9Z1M0); assay: Entry of ethidium bromide into HT-22 cells; type: cell-based; conditions: HT-22 cells, 60 minutes, 10^−4M ethidium bromide; 1 μM to 1 mM tested
T1 construct: endogenous in cells; host or cells: HT-22 (immortalised mouse hippocampal cell line)
T1 sequence (Q9Z1M0 1-595): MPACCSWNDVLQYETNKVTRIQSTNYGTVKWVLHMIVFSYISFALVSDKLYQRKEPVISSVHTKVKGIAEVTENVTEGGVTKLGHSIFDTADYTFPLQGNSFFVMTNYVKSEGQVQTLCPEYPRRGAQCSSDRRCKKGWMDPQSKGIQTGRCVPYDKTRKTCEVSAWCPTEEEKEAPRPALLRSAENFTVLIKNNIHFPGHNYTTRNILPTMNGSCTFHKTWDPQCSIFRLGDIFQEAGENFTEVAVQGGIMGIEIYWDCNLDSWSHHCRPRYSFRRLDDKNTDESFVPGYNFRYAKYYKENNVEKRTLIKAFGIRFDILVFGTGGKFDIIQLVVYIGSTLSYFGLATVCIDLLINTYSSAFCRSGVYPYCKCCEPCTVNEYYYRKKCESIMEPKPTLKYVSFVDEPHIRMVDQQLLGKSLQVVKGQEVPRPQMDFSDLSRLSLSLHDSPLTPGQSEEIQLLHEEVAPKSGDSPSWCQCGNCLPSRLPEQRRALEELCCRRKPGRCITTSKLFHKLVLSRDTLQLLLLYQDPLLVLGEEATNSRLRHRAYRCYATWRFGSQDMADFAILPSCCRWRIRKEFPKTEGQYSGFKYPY
From the text: Yet another method of measuring P2X7R activity involves the entry of ethidium bromide into P2X7R expressing cells. Activation of P2X7R by an agonist allows the entry of ethidium bromide which binds nuclear DNA and emits a fluorescence signal. Alternatively, the propidium dye YOPRO-1 can be substituted for ethidium bromide. An increase in fluorescence can be used as a measure of P2X7 receptor activation. Therefore, the assay can be used to test and quantify the effect of an agent or compound with agonist properties on P2X7R. In the present example, 10^3 HT-22 cells were seeded per well in a 96-well flat bottom microtitre plates and incubated at 37° C./5% CO2 in DMEM medium containing 10% FCS until the cells attached to the culture surface. […] The number of fluorescent cells which have integrated the ethidium bromide to the DNA can then be counted using a fluorescent microscope (Zeiss, Germany). […] Alternatively, ethidium bromide fluorescence can be measured using a Perkin-Elmer fluorescent plate reader (excitation 520 nm, emission 595 nm, slit widths: Ex 15 nm, Em 20 nm). From the readings obtained, a pIC50 figure can be calculated for each candidate agent or compound. […] The specificity of an agonist for P2X7R can be evaluated by pre-incubation of the cells for 60 minutes with 100 μM o-ATP before adding the agonist and ethidium bromide dye.

P2X7R [2] = biological target: T2, P2X7R (Homo sapiens, UniProt Q99572); conditions: dose response curve, Y-axis ion current; cited from earlier work
T2 sequence (Q99572 1-595): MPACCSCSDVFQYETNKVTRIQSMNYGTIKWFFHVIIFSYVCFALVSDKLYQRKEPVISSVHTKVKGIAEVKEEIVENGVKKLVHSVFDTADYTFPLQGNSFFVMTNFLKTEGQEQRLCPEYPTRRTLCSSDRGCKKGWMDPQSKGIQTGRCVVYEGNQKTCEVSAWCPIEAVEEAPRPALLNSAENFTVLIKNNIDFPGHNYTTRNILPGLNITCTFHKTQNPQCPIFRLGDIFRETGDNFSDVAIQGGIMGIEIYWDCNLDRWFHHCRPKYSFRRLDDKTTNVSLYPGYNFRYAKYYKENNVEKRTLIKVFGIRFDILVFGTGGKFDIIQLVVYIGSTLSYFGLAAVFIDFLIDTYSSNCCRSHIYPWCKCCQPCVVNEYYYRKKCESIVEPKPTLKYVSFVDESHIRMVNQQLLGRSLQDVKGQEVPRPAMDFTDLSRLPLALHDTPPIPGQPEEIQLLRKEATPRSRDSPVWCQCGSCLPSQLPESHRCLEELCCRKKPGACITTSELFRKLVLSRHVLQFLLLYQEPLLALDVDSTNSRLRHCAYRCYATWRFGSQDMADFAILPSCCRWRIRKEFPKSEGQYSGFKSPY

[3] = 1 μl each side, not supported statistically
[4] = 1 μl each side, statistically significant

2′-3′-O-(4-Benzoylbenzoyl)adenosine 5′-triphosphate [BzATP]
time of struggling (DBA/201a mouse strain; 1 μl each side of hippocampus, statistically significant): increase | frequency of struggling (DBA/201a mouse strain; [3]): increase | latency of struggling (DBA/201a mouse strain; [3]): decrease | time of floating (DBA/201a mouse strain; [3]): decrease | frequency of floating (DBA/201a mouse strain; [4]): decrease | latency of floating (DBA/201a mouse strain; [4]): increase | concentration that increased the number of fluorescent nuclei (P2X7R [1]): above 100 μM | EC50 (P2X7R [2]): 8 µM
